Results taken from patent publication US4389412A, “Substituted cyclopropanecarboxylic acid esters and pesticidal compositions containing the same as active ingredient” (priority 1979, dated 1983).
Converted amounts (≈) assume the structure as drawn. Like-named read-outs stand apart in the source and are kept apart here.

Experiments:
[1] = system: brown planthoppers (Nilaparvata lugens Stal); assay: Utility Example-1: LC50 on adult brown planthoppers on dipped rice plants; type: in vivo; conditions: Nilaparvata lugens, 24 h, 25° C., read-out: Pesticidal activity LC50
Protocol: A 1% emulsifiable concentrate of each test compound as prepared by the procedure described in Formulation Example 2 was diluted with water to prepare a test solution of predetermined concentration.
Rice plants, 4 weeks after sowing (cultivated in a pot 6 cm in diameter, 7 seedlings) were dipped in the above solution and after allowing them to dry in the air, the pot was covered with a wire-mesh cage. Then, 30 adult brown planthoppers (Nilaparvata lugens Stal) were released into the cage and the pot was kept in a constant-temperature chamber at 25° C.

[2] = system: houseflies (Musca domestica); assay: Mortality test with houseflies by topical application method; conditions: 24 h
[3] = Acute toxicity test in rat by the oral route; type: in vivo; conditions: in vivo, male rat, in olive oil, after 7 days
Source text: Acute toxicity test in rat by the oral route

carp and water flea = assay: Fish toxicity ranking according to Japanese regulations; parameters: species or system Cyprinus carpio L; Daphnia pulex; conditions: from TLm for carp and water flea
Protocol: The above ranking with symbols A, B and C were determined according to Japanese regulations relative to application of agricultural chemicals, and these symbols are defined as follows: […]
A: TLm (48 hrs.) value >10 ppm for carp and TLm (3 hrs.) value >0.5 ppm for water flea, wherein toxicity to fishes is not observed by usual application.
B: TLm (48 hrs.) value 10-0.5 ppm for carp; or TLm (48 hrs.) value >10 ppm for carp and TLm (3 hrs.) value <0.5 ppm for water flea, wherein appreciable toxicity to fishes is not observed by usual application but may be observed when applied to wide area at one time.
C: TLm (48 hrs.) value <0.5 ppm for carp, wherein toxicity to fishes is so strongly observed by usual application that both the application method and application area are strictly restricted.

[4] = system: guppies (Lebistes reticulatus); assay: Fish toxicity test with guppies; type: in vivo; conditions: Table 1; 48 hrs.
Protocol: (§1) Fish toxicity test with guppies (Lebistes reticulatus)
(§2) To 5 liters of water were added 250 mg of Sorpol SM-200 (trademark, Toho Chemical Co., Ltd.) as a surfactant and 2.5 ml of an acetone solution containing one of the test compounds in a predetermined concentration. The mixture was stirred thoroughly to prepare a test water. Ten female guppies (Lebistes reticulatus) of from 3 to 4 months of age were released into the test water which was maintained at 20° C. and the TLm (median tolerance limit, ppm) was determined.

[5] = Fish toxicity test with guppies; type: in vivo, Lebistes reticulatus; conditions: guppy, water, guppies, 20° C., read-out: TLm (48 hrs.)
Protocol: as §1, §2

[6] = system: rice stem borers (Chilo suppressalis Walker); assay: Mortality test with rice stem borers by topical application method; type: in vivo; conditions: 24 h
Protocol: Mortality test with rice stem borers (Chilo suppressalis Walker) by topical application method
Using a microsyringe, 0.5 μl of the above solution was applied to the thoracic abdominal region of each final-instar larva of rice stem borer (Chilo suppressalis Walker). […] The test larvae were used in groups of 20 individuals each.

[7] = Fish toxicity safety factor (TLm divided by maximum concentration in cover water); parameters: species or system carp; conditions: in vivo, TLm / maximum concentration in cover water at LC50 application (100 l per 10 ares, 5 cm depth)
Protocol: To further confirm the low toxicity to fish and high pesticidal activity of Compounds (1) and (2) according to this invention as evidenced by the fish toxicity tests with carps and the above tests, fish toxicity safety factors were calculated from the fish toxicity and pesticidal test data. These fish toxicity safety factors are indicators of safety to fish inhabiting a paddy field to which Compounds (1) and (2) may be actually applied for pest control purposes.
It is first assumed that such a pesticidal solution would normally be applied at the rate of 100 l per 10 ares of paddy field. It is also assumed that a solution (100 l) corresponding to the LC50 of the compounds would be applied to 10 ares of a paddy field carrying a cover water with a depth of 5 cm above ground surface and that all the solution would then find its way into the cover water. The expected maximum concentration of the compound in the cover water is then calculated. The fish toxicity safety factor of a pesticidal compound is defined as the value obtained by dividing the TLm (ppm) of the particular compound by the maximum concentration of the compound in cover water. The meaning of the value of the fish toxicity safety factor being one (1) is that the maximum concentration of the particular compound in cover water corresponds to the TLm of said compound. It is understood that when the pesticidal compound having a fish toxicity safety factor value of less than one (1) is applied to a paddy field, it has a risk of destroying the fish inhabiting there, and that the higher the safety factor value, the higher is the safety of the compound to fish.
This fish toxicity safety factor will now be explained in further detailed by taking the trans-isomer of Compound (2) of this invention as an example.
On the other hand, the toxicity to fish of this compound is TLm >10 ppm. Therefore, by dividing the TLm (i.e. >10 ppm) by the above cover water maximum concentration (i.e. 0.36 ppm), we obtain a fish toxicity safety factor of >28. Thus, the concentration of the trans-isomerof Compound (2) which kills 50% of pests corresponds to less than 1/28 of the concentration of the same isomer which kills 50% of fish. In other words, this means that the trans-isomer of Compound (2) is extremely safe to fish.

[8] = system: tobacco cutworms (Prodenia litura Fabricius); assay: Mortality test with tobacco cutworms by topical application method; type: in vivo; conditions: 24 h
Protocol: Mortality test with tobacco cutworms (Prodenia litura Fabricius) by topical application method
Using a microsyringe, 0.5 μl of the above solution was dripped onto the thoracic adbominal region of each of 3-instar tobacco cutworm (Prodenia litura Fabricius) larvae. […] The test larvae were used in groups of 20 individuals each.

[9] = Fish toxicity test with killifish; type: in vivo, Orizias latipes; conditions: water, killifish, 25±1° C., read-out: TLm (48 hrs.)
Protocol: Fish toxicity test with killifish (Orizias latipes)
An acetone solution of one of the test compounds as mentioned in Table 8 was prepared by adding said test compound to 15 ml of acetone. To 10 liters of water was added a predetermined amount of the above acetone solution and the mixture was stirred thoroughly to prepare an aqueous solution containing the test compound in a predetermined concentration. This was used as a test water. After the each test water was moderately aerated, ten killifishes (Orizias latipes) with a body weight of about 0.25 g and a body length of about 2.5 cm were released into said each test water which was maintained at 25±1° C. After 48 hours, the test fish was examined for death. The TLm (median tolerance limit, ppm) was determined.

[10] = Fish toxicity test with carp; type: in vivo, Cyprinus carpio L; conditions: carp, water, 48 hrs., 21±1° C.; read-out: TLm, Carp (48 hrs.)
Protocol: Fish toxicity test with carp (Cyprinus carpio L)
An acetone solution of one of the test compounds as mentioned in Table 10 and Tween-20 (the same surfactant as mentioned hereinbefore) was prepared. To 50 liters of water (30 cm deep) in a glass tank was added the above acetone solution. The mixture was stirred thoroughly to prepare an aqueous solution containing the test compound in a predetermined concentration. This was used as a test water. Five carps (Cyprinus carpio L) with a body weight of about 6 g and a body length of about 6 cm were released into each test water which was maintained at 21±1° C. After 48 hours, the test fish was examined for death. The TLm (median tolerance limit, ppm) was determined. The test water was moderately aerated.

[11] = system: green rice leafhoppers (Nephotettix cincticeps Uhler); assay: Mortality test with green rice leafhoppers by topical application method; conditions: Nephotettix cincticeps, in Oryza sativa, 24 h
Protocol: Mortality test with green rice leafhoppers (Nephotettix cincticeps Uhler) by topical application method
Then, the insects were kept at 25° C. with access to rice plant seedlings. The insects were used in groups of 15 individuals each.

[12] = system: green rice leafhoppers (Nephotettix cincticeps Uhler); assay: Utility Example-2: spray on rice plants, green rice leafhoppers; type: in vivo; conditions: 7 ml/pot, 24 hours
Protocol: A 30% emulsifiable concentrate of each of the cis- and trans-isomers and a 50:50 mixture of the cis- and trans-isomers of Compound (1) and Compound (2) as prepared by the procedure described in Formulation Example-1 was diluted with water to a concentration of 80 ppm as active compound. Rice plants 4 weeks after sowing in pots (each pot 6 cm in diameter, 7 seedlings) were sprayed with the above solution at the rate of 7 ml/pot and, after drying in the air, each pot was covered with a wire-mesh cage. Then, 20 female adult green rice leafhoppers (Nephotettix cincticeps Uhler) were released into the cage. The caged pots were kept in a constant-temperature chamber at 25° C. […] In all groups, the mortality values were not less than 90%.

[13] = system: green rice leafhoppers (Nephotettix cincticeps Uhler); assay: Utility Example-4: 0.2% dust on rice seedlings, green rice leafhoppers; type: in vivo; conditions: 5 kg per 10 ares, 24 hours, resistant to organophosphorus and carbamate pesticides
Source text: (§3) A 0.2% dust preparation of each of the cis- and trans-isomers and a 50:50 mixture of the cis- and trans-isomers of Compound (1) and of Compound (2) as prepared by the procedure described in Formulation Example-3 was applied to rice seedlings by means of a bell-jar duster at the rate of 5 kg per 10 ares. […] In all cases, the mortality was not less than 90%.

[14] = system: green rice leafhoppers (Nephotettix cincticeps); assay: Utility Example-6: 0.5% dust on rice seedlings, green rice leafhoppers; type: in vivo; conditions: 1 kg per 10 ares, 24 hours, resistant to organophosphorus and carbamate pesticides
Source text: as §3, with “A 0.5%” for “A 0.2%”, “Formulation Example-4” for “Formulation Example-3”, “of 1” for “of 5”, “ares. Then, 30 green rice leafhoppers (Nephotettix cincticeps) resistant to organophosphorus and carbamate pesticides were released.” for “ares.”

[15] = system: brown planthoppers (Nilaparvata lugens); assay: Utility Example-7: 0.5% dust on rice seedlings, brown planthoppers; type: in vivo; conditions: 1 kg per 10 ares, 24 hours
Source text: as §3, with “A 0.5%” for “A 0.2%”, “Formulation Example-4” for “Formulation Example-3”, “rice seedlings, on which 30 adult brown planthoppers (Nilaparvata lugens) were released,” for “rice seedlings”, “of 1” for “of 5”

[16] = system: two-spotted spider mites (Tetranychus urticae Koch); assay: Mortality test with two-spotted spider mites by spray application method; type: in vivo; conditions: 48 h, 200 ppm spray, two days, read-out: Percent decrease of population (%)
Protocol: Mortality test with two-spotted spider mites (Tetranychus urticae Koch) by spray application method
To a 5% aqueous solution of acetone was added dropwise a small amount of Tween-20 (polyethylene sorbitan monolaurate) as a surfactant. […] From 30 to 50 adult two-spotted spider mites (Tetranychus urticae Koch) were released on the leaves of kidney-bean plants in the dicotyledonous stage in a pot 9 cm in diameter, followed by a spray application of the above solution. The pot was kept in a constant-temperature chamber at 26° C. and two days later the mites were examined for deaths. The percent decrease of population was then calculated.

[17] = system: small brown planthoppers (Laodelphax striatellus Fallen); assay: Utility Example-3: spray on rice plants, small brown planthoppers; type: in vivo; conditions: 7 ml/pot, 24 hours
Protocol: A 30% emulsifiable concentrate of each of the cis- and trans-isomers and a 50:50 mixture of the cis- and trans-isomers of Compound (1) and of Compound (2) as prepared by the procedure described in Formulation Example-1 was diluted with water to a concentration of 80 ppm as active compound. Rice plants 4 weeks after sowing in pots (each pot 6 cm in diameter, 7 seedlings) were sprayed with the above diluted solution at the rate of 7 ml/pot and, after drying in the air, each pot was covered with a wire-mesh cage. Then, 30 adult small brown planthoppers (Laodelphax striatellus Fallen) were released into the cage. The pots were kept in a constant-temperature chamber at 25° C. […] In all groups, the mortality was not less than 90%.

CC1(C)C(C=C(Cl)Cl)C1C(=O)OC(C#N)c1cccc(Oc2ccccc2)c1 (stereo not shown) [Compound (C), Cypermethrin]
LC50 [1]: 210 mg/L (≈ 504 µM)
mortality at 0.5 µg/female [2]: 100%
mortality at 1 µg/female [2]: 100%
mortality at 0.001 mg ([2]; read-out: Pesticidal effect, housefly): 100%
LD50 at 168 h [3]: 310 mg/kg
Ranking (carp and water flea): C (TLm (48 hrs.) value <0.5 ppm for carp, wherein toxicity to fishes is so strongly observed by usual application that both the application method and application area are strictly restricted.)
Toxicity to fish TLm, guppy [4]: < 0.5 ppm
LC50 at 48 h [5]: < 0.5 mg/L
mortality at 1 µg/larva [6]: 95%
mortality at 10 µg/larva [6]: 100%
mortality at 0.001 mg ([6]; read-out: Pesticidal effect, rice stem borer): 95%
selectivity ratio [7]: 0.01
mortality at 0.0001 mg ([8]; read-out: Pesticidal effect, tobacco cutworm): 100%
LC50 at 48 h [9]: 0.026 mg/L (≈ 0.0625 µM)
LC50 at 48 h [10]: 0.0045 mg/L (≈ 0.0108 µM)
mortality at 0.01 µg/female [11]: 100%
mortality at 0.1 µg/female [11]: 100%
mortality at 1 µg/female [11]: 100%
mortality at 10 ng ([11]; read-out: Pesticidal effect, green rice leafhopper): 100%

CC1(C)[C@H](C=C(Cl)Cl)[C@@H]1C(=O)OCc1cccc(Oc2ccc(Cl)cc2)c1 (relative stereo) [Compound (1) cis-, 3-(4-chlorophenoxy)benzyl cis-2,2-dimethyl-3-(2,2-dichlorovinyl)cyclopropanecarboxylate]
mortality at 0.5 µg/female [2]: 100%
mortality at 1 µg/female [2]: 100%
mortality at 80 ppm [12]: ≥ 90%
mortality [13]: not less than 90%
mortality [14]: not less than 90%
mortality at 1 µg/larva [6]: 100%
mortality at 10 µg/larva [6]: 100%
mortality [15]: not less than 90%
mortality at 200 ppm [16]: 100%
mortality at 0.0001 mg [8]: 100%
LC50 at 48 h [9]: > 10 mg/L
mortality at 80 ppm [17]: ≥ 90%
